Converted amounts (≈) assume the structure as drawn. “Also recorded” adds a separate entry of the source. Read-outs that look alike come from different tables or passages of the source.
Tests used:
laser-induced CNV [1] = test: Laser-induced mouse CNV model, intravitreal injection; type: in vivo; settings: for area of neovascular lesions, mouse laser-induced CNV model: discussion summary, route not stated; for neovascular area vs control injected eyes: two intravitreal injections of 10 ng
Procedure: (§1) Laser Lesion Induction Protocol
(§2) Six to eight week-old C57/B6 mice (B&K Laboratories) and adult Norway-Brown rats (Harlan Laboratories) were anaesthetized with an intraperitoneal injection of a mixture of 50 mg/kg ketamine and 0.5 mg/kg medetomidine. The pupils were dilated with 2.5% phenylephrine hydrochloride and 1% tropicamide. Four photocoagulation lesions were delivered with a krypton red laser (Mice: 250 mW, 0.01 s, 75 μm, Rats: 200 mW, 0.01 s, 75 μm, IRIS Medical 810 nm Oculight Slx laser) between the retinal vessels in a peripapillary distribution at a distance of 1-2 disc-diameters in each eye. Only laser lesions with a subretinal bubble at the time of treatment were included in the study. […] Animals were culled on either day 4 or day 14 and eyes were either unfixed for retinal dissection and protein extraction, or fixed and enucleated and choroids stained for isolectin-B4 and examined.

SRPK2 = SRPK2 (Homo sapiens, UniProt P78362); test: In vitro kinase assay, SRPK2; type: biochemical
Sequence of SRPK2 (P78362 whole entry, species assumed): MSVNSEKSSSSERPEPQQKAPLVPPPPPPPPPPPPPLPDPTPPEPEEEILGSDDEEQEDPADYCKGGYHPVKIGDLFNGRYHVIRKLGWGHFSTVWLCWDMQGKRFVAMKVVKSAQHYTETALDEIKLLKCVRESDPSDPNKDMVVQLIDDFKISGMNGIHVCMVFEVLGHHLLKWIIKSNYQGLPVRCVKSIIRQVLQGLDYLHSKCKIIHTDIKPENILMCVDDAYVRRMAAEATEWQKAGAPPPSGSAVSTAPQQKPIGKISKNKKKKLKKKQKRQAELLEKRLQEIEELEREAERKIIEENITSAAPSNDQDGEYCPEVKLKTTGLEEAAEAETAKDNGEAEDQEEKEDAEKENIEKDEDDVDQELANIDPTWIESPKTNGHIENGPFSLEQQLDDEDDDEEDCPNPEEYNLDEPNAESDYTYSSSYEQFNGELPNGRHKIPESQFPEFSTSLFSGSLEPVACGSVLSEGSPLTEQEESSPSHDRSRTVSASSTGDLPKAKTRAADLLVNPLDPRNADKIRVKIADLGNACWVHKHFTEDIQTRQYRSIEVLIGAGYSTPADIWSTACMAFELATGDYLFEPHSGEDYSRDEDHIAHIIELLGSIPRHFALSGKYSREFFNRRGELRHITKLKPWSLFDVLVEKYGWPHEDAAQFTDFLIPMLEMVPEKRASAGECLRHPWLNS

[2] = system: SRPK1 expression in ARPE-19 cells; test: SRPK1 expression in ARPE-19 cells (western blot); type: cell-based, human; settings: 10 μM, up to six days
VEGF protein expression = test: PanVEGF and VEGFxxxb ELISA; type: cell-based, human; settings: FIG. 2C
Procedure: PanVEGF and VEGFxxxb enzyme-linked immunosorbent assay (ELISA).
One μg/ml pan-VEGF capture antibody (Duoset VEGF ELISA DY-293; R&D systems) was incubated overnight at room temperature. The plates were blocked (Superblock; Thermo Scientific) and serial dilutions of recombinant human (rh)VEGF165 or rhVEGF165b standards (ranging from 4 ng/ml to 16.25 pg/ml) were added, incubated alongside sample lysates, typically diluted 1:10. The plate was incubated for one hour at 37° C. with shaking, washed and incubated with 100 μl/well of either biotinylated goat anti-human VEGF (0.1 μg/ml; R & D systems) or mouse anti-human VEGF165b (0.25 μg/ml) for one further hour at 37° C. After washing, 100 μl/well of Horseradish Peroxidase (HRP)-conjugated streptavidin (1:200; R&D Systems) was added, and plates were left at room temperature for 20 minutes.
The plates were washed and colour change induced with substrate A and B (DY-999; R&D Systems) for 20 mins under light protection. The reaction was stopped by addition of 100 μl/well of 1M H2SO4 and the absorbance was read immediately in an ELISA plate reader (Dynex Technologies Opsys MR system plate reader) at 450 nm with a control reading at 570 nm. Revelation Quicklink 4.25 software was also used to calculate a standard curve from mean absorbance values of standards enabling the estimation of VEGF concentration for each sample.

in vivo = settings: CD-1, mouse, topical or ocular, 5 ug
laser-induced CNV [3] = test: Laser-induced rat CNV model, intravitreal injection; type: in vivo; settings: intravitreal (SRPIN340 25 ng)
Procedure: as §1, §2
MVRL10 therefore appeared to be a relatively specific inhibitor of SRPK1. To determine whether SRPK1 inhibition could inhibit CNV in animal models we tested these compounds alongside each other in a laser-induced mouse CNV model. […]

[4] = system: VEGF expression in retinal protein; test: Retinal protein VEGF expression by western blot, rat CNV model; type: in vivo
Procedure: as §2
Retinal protein from SRPIN340 and saline treated eyes 4 days after initial treatment was assessed for VEGF expression by western blot. […] The expression of VEGFxxxb isoforms was investigated using mouse monoclonal 561 antibody (R&D systems).

[5] = system: VEGF165 mRNA in the retina; test: VEGF165 mRNA expression in retinae after topical treatment; type: in vivo; settings: mouse, day 14
[6] = system: SRSF1 expression in ARPE-19 cells; test: SRSF1 expression relative to tubulin in ARPE-19 cells; type: cell-based, human; settings: 72 hours up to six days
Procedure: Protein samples (30-50 μg) were mixed with 1× sodium-dodecyl sulphate (SDS) loading buffer (100 mM Tris-HCl, 4% SDS, 20% glycerol, 0.2% (w/v) bromophenol blue, and 5% final concentration 2-mercaptoethanol, pH6.8). To denature the protein, samples were boiled for five minutes at 100° C.
Samples were subjected to polyacrylamide gel electrophoresis (PAGE) on a 12% SDS-PAGE gel at 90V in ice cold running buffer (25 mM Tris-HCl, 250 mM glycine, 0.1% SDS, pH8.3) for approximately 2.5 hours. The separated proteins were then electrophoretically blotted to a methanol-activated polyvinylidene fluoride (PVDF) membrane (Fisher Scientific) by wet transfer for two hours at 90V in transfer buffer (50 mM Tris-HCl, 38 mM glycine, 20% methanol, pH8.3). […] The washes were repeated and the bands were detected using the Enhanced Chemoluminiscence (ECL) SuperSignal West Femto Maximum Sensitivity Substrate kit (Pierce).
The SRPK inhibitors were tested in a series of in vitro assays to determine the effect of treatment on VEGF isoform expression. Initially the effect of compound treatment on SRPK1 and SRSF1 expression was determined.

laser-induced CNV [7] = test: Laser-induced mouse CNV model, topical eye drops; type: in vivo
Procedure: as §1, §2
We performed a dose response trial investigating SRPIN340 topical eye drops. SRPIN340 was dissolved in a previously described drug delivery vehicle (Doukas et al., 2008) and administered twice daily. Fourteen days following laser insult choroids were fixed and flatmounted for isolectin staining and retinae were extracted for RNA analysis.

[8] = Pharmacokinetics in the eye after topical application (mass spectrometry)
SRPK1 = SRPK1 (Homo sapiens, UniProt Q96SB4); test: In vitro kinase assay (Kinase-Glo), SRPK1; type: biochemical; settings: for activity in the in vitro SRPK1 kinase assay: words
Sequence of SRPK1 (Q96SB4 whole entry, species assumed, canonical isoform): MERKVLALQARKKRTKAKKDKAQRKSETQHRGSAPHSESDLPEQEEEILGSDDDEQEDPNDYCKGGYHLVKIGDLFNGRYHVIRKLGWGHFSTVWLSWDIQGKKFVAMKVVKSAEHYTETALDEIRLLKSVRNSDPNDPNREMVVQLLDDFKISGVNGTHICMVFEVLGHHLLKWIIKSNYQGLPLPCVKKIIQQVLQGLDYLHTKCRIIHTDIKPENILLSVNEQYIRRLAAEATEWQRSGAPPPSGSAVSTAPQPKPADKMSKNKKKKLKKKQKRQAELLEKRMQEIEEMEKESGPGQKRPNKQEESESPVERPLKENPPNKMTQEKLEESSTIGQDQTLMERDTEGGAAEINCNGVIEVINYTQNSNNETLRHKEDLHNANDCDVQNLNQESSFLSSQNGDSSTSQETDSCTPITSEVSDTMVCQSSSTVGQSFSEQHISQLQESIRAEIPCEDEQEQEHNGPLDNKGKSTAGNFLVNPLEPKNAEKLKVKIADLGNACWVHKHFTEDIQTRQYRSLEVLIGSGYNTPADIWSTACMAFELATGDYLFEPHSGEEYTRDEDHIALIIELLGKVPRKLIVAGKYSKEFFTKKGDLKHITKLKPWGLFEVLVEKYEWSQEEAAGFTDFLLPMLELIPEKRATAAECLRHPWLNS

[9] = system: VEGF165 mRNA isoforms in primary RPE cells; test: RT-PCR for VEGF165 / VEGF165b mRNA in primary RPE cells; type: cell-based, human; settings: 5 μM, 24 hours, primary RPE cells
Procedure: ID NO: 5)). […] Cells were treated with […]6 and 7 and the PCR repeated.

[10] = Pharmacokinetics in the eye after intravitreal injection (mass spectrometry); type: in vivo, mouse; settings: 20 ng intravitreal
CNV lesion area = settings: cited from earlier work
neovascular AMD = settings: 0.5 mg monthly, at one year; cited from earlier work
[11] = Table 1, read-out: IC50 (nM) for SRPK1

Molecule: Cc1ccc(C(=O)Nc2cc(C(F)(F)F)ccc2N2CCOCC2)o1 [SPHINX, 5-methyl-N-[2-(morpholin-4-yl)-5-(trifluoromethyl)phenyl]furan-2-carboxamide]
- area of neovascular lesions, mouse laser-induced CNV model (laser-induced CNV [1]): achieving significance
- neovascular area vs control injected eyes (laser-induced CNV [1]; mouse): significantly reduced neovascular area
- preference for SRPK1 over SRPK2 (SRPK2): greater than 10 fold
- inhibition at 10 µM (SRPK2; at 10 μM): 10%
- SRPK1 expression [2]: did appear to reduce SRPK1 expression

Molecule: O=C(Nc1cc(C(F)(F)F)ccc1N1CCCCC1)c1ccncc1 [SRPIN340, N-[2-(1-piperidinyl)-5-(trifluoromethyl)phenyl]isonicotinamide]
- VEGF expression relative to total protein (VEGF protein expression): significantly reduced total VEGF expression
- area of neovascular lesions, mouse laser-induced CNV model (laser-induced CNV [1]): achieving significance
- EC50 on CNV area (laser-induced CNV [1]; mouse, intravitreal, total injected dose): 1.28 ng
- neovascular area vs control injected eyes (laser-induced CNV [1]; mouse): significantly reduced neovascular area
- half-life (in vivo): 0.583 h
- CNV area vs saline injected controls (laser-induced CNV [3]): significantly reduced the CNV area
- IC50 (SRPK2): 7.4 µM
- ratio of pro to anti-VEGF isoforms in retinal protein ([4]; rat, 4 days after initial treatment): No difference in the ratio of pro to anti-VEGF isoforms
- VEGF expression in retinal protein ([4]; rat, 4 days after initial treatment, western blot): decrease in the expression of VEGF; also recorded: reduced CNV area and total VEGF protein expression
- expression of VEGFxxxb isoforms in rat retinae ([4]; vs saline controls): no change in the expression of VEGFxxxb isoforms
- VEGF165 mRNA expression in the retinae [5]: reduced; also recorded: near significant reduction in VEGF165
- expression of SRSF1 relative to a tubulin control [6]: reduced expression of SRSF1
- CNV area, 0.01% solution (laser-induced CNV [7]; 0.01% solution in gel drug delivery vehicle, topical): significant inhibition of CNV area
- EC50 (laser-induced CNV [7]; Mus musculus, topical, read-out: EC50 on CNV, topical): 3.19 mg/L (≈ 9.12 µM)
- CNV formation, eye drop (laser-induced CNV [7]; mouse, topical): significantly inhibited CNV formation; also recorded: significantly suppressed CNV
- EC50 on CNV lesion area, topical drops (laser-induced CNV [7]; mouse, twice daily eye drops, total dose): 640 ng
- SRPK1 expression [2]: failed to affect SRPK1 expression
- detection in the eye ([8]; 48 hours after a single topical administration): still detectable
- systemic detection ([8]; after a single topical administration): not detected systemically
- fraction of total applied dose detected in the eye ([8]; single topical 5 μg, after 1 hour, whole eye): 3.5%
- fraction of applied dose detected in the posterior chamber ([8]; single topical 5 μg, after 12 hours): 0.15%
- IC50 (SRPK1): 960 nM
- expression of VEGF165 mRNA relative to GAPDH [9]: reduced the expression VEGF65 at RNA level
- concentration in the eye ([10]; over a 2 day period): > 0.01 µg/mL
- half-life ([10]; mouse, eye tissue, 1-48 hours curve fit, read-out: sustained half-life in the eye (converted)): 22 h

Molecule: CN(C)CCNc1ccc(C(F)(F)F)cc1NC(=O)c1ccc(-c2cccnc2)o1 [SPHINX8]
- IC50 (SRPK1; [11]): 9310 nM
- activity in the in vitro SRPK1 kinase assay (SRPK1): no activity

Molecule: CN1CCN(c2ccc(C(F)(F)F)cc2NC(=O)c2ccc(C#N)o2)CC1 [SPHINX14]
- IC50 (SRPK1; [11]): 1270 nM

Molecule: O=C(Nc1cc(C(F)(F)F)ccc1NCc1cccnc1)c1ccc(-c2cccnc2)o1 [SPHINX9]
- IC50 (SRPK1; [11]): > 10000 nM
- activity in the in vitro SRPK1 kinase assay (SRPK1): no activity

Molecule: Cc1cc(-c2cc(OC(=O)c3ccccc3)ccc2Cl)cc2nnc(Nc3ccc(OCCN4CCCC4)cc3)nc12 [TG100801]
- CNV lesion area (CNV lesion area; twice daily topical 0.6%): not
- CNV lesion area (CNV lesion area; twice daily topical 1%): significantly reduced CNV lesion area

Molecule: O=C(Nc1cc(C(F)(F)F)ccc1NCc1cccnc1)c1ccc(-c2ccncc2)o1 [SPHINX10]
- IC50 (SRPK1; [11]): > 10000 nM
- activity in the in vitro SRPK1 kinase assay (SRPK1): no activity

Molecule: O=C(Nc1cc(C(F)(F)F)ccc1N1CCOCC1)c1cccnc1 [MVRL09, N-[2-(morpholin-4-yl)-5-(trifluoromethyl)phenyl]pyridine-3-carboxamide]
- VEGF expression relative to total protein (VEGF protein expression): significantly reduced total VEGF expression
- inhibition of SRPK2 (SRPK2; words): no inhibition
- expression of SRSF1 relative to a tubulin control [6]: reduced expression of SRSF1
- SRPK1 expression [2]: failed to affect SRPK1 expression
- IC50 (SRPK1; FIG. 1B, read-out: IC50 SRPK1 kinase): > 10000 nM
- expression of VEGF165b mRNA [9]: induced clear expression of VEGF165b
- expression of VEGF165 mRNA relative to GAPDH [9]: reduced the expression VEGF65 at RNA level

Molecule: CN1CCN(c2ccc(C(F)(F)F)cc2NC(=O)c2ccc(-c3cccnc3)o2)CC1 [SPHINX12]
- IC50 (SRPK1; [11]): 367 nM

Molecule: CN(C)CCN1CCN(c2ccc(C(F)(F)F)cc2NC(=O)c2ccc(-c3cccnc3)o2)CC1 [SPHINX6]
- IC50 (SRPK1; FIG. 7, read-out: SRPK1 inhibition IC50): 173 nM
- IC50 (SRPK1; [11]): 177 nM

B1: Lucentis: humanized anti-VEGF antibody fragment, FDA approved for the treatment of neovascular AMD (antibody, chains of the INN, looked up, V domains shown)
VH: EVQLVESGGGLVQPGGSLRLSCAASGYDFTHYGMNWVRQAPGKGLEWVGWINTYTGEPTYAADFKRRFTFSLDTSKSTAYLQMNSLRAEDTAVYYCAKYPYYYGTSHWYFDVWGQGTLVTVSS
VL: DIQLTQSPSSLSASVGDRVTITCSASQDISNYLNWYQQKPGKAPKVLIYFTSSLHSGVPSRFSGSGSGTDFTLTISSLQPEDFATYYCQQYSTVPWTFGQGTKVEIK
modifications: Fab
notes: humanized anti-VEGF antibody fragment, FDA approved for the treatment of neovascular AMD
- patients who maintained visual acuity (loss of <15 letters) (neovascular AMD): approximately 95%
- patients with improved vision (gain of ≥15 letters) (neovascular AMD): ≤ 40%

— patent US10301264B2, “Compounds useful for treating ocular neovasculan” (The University of Nottingham, priority 2012, dated 2019)
